Assays:
Protein O-GlcNAcase [1] = target: T1, Protein O-GlcNAcase (Homo sapiens, UniProt O60502); assay: Inhibition of recombinant human OGA
T1 sequence (O60502 whole entry): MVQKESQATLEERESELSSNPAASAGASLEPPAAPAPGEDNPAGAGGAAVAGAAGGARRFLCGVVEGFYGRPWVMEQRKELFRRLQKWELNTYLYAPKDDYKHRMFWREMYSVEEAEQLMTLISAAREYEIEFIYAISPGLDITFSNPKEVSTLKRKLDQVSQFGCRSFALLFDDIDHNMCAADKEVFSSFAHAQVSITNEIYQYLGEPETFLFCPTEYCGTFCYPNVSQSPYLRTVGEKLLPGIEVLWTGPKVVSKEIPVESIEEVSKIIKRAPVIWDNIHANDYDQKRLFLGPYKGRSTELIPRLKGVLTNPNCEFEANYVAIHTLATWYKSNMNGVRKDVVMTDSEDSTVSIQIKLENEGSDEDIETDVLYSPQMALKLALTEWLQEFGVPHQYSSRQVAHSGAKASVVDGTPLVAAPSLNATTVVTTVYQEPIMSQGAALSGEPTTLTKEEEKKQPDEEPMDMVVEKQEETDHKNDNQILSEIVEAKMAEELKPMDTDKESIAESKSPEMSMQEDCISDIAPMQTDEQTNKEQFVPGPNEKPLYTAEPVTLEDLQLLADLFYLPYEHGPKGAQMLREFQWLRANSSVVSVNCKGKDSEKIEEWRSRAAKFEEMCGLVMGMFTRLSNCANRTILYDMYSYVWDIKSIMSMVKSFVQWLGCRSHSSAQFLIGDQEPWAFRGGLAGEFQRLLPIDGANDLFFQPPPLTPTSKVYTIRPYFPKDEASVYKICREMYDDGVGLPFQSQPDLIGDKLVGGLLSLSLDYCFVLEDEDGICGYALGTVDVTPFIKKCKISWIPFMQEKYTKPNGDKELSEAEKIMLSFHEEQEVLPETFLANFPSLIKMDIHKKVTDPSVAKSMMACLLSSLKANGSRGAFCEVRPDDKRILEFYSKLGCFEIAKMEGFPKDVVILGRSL

[2] = target: Voltage-gated inwardly rectifying potassium channel KCNH2 (Homo sapiens, UniProt Q12809); assay: Displacement of MK-0499 from human ERG
Voltage-gated inwardly rectifying potassium channel KCNH2, sequence (Q12809 whole entry): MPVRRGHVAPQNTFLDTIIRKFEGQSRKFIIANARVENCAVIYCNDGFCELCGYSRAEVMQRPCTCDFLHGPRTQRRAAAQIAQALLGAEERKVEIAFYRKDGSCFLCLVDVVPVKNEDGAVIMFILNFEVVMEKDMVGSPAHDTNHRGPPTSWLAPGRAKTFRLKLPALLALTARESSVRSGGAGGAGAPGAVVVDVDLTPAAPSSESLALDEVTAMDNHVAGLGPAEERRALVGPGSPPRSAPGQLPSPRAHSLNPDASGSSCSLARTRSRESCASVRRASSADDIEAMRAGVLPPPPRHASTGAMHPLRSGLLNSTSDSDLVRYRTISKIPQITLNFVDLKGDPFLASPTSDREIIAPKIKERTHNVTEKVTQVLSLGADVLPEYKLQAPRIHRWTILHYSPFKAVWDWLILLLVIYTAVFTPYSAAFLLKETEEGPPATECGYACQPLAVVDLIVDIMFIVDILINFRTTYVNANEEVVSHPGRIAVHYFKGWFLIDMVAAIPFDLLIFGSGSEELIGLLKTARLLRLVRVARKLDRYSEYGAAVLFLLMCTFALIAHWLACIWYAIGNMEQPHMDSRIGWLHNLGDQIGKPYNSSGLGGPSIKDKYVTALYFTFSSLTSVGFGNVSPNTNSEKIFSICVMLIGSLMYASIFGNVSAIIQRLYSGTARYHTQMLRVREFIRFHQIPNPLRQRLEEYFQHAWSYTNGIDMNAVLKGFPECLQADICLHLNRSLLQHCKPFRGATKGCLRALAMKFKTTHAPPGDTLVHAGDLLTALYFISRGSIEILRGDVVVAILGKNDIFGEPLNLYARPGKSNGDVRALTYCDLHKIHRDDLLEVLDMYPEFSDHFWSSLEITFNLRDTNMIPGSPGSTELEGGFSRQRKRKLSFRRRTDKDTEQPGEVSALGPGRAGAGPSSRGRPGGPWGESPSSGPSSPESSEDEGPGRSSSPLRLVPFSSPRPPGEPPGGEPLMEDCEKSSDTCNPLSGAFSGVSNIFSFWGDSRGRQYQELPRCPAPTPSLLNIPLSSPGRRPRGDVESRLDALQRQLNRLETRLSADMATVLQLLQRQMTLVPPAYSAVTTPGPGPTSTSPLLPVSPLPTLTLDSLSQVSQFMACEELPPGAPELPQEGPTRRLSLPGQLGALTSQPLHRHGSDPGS

[3] = target: Sodium channel protein type 5 subunit alpha (Homo sapiens, UniProt Q14524); assay: Inhibition of Nav1.5 (unknown origin)
Sodium channel protein type 5 subunit alpha, sequence (Q14524 whole entry): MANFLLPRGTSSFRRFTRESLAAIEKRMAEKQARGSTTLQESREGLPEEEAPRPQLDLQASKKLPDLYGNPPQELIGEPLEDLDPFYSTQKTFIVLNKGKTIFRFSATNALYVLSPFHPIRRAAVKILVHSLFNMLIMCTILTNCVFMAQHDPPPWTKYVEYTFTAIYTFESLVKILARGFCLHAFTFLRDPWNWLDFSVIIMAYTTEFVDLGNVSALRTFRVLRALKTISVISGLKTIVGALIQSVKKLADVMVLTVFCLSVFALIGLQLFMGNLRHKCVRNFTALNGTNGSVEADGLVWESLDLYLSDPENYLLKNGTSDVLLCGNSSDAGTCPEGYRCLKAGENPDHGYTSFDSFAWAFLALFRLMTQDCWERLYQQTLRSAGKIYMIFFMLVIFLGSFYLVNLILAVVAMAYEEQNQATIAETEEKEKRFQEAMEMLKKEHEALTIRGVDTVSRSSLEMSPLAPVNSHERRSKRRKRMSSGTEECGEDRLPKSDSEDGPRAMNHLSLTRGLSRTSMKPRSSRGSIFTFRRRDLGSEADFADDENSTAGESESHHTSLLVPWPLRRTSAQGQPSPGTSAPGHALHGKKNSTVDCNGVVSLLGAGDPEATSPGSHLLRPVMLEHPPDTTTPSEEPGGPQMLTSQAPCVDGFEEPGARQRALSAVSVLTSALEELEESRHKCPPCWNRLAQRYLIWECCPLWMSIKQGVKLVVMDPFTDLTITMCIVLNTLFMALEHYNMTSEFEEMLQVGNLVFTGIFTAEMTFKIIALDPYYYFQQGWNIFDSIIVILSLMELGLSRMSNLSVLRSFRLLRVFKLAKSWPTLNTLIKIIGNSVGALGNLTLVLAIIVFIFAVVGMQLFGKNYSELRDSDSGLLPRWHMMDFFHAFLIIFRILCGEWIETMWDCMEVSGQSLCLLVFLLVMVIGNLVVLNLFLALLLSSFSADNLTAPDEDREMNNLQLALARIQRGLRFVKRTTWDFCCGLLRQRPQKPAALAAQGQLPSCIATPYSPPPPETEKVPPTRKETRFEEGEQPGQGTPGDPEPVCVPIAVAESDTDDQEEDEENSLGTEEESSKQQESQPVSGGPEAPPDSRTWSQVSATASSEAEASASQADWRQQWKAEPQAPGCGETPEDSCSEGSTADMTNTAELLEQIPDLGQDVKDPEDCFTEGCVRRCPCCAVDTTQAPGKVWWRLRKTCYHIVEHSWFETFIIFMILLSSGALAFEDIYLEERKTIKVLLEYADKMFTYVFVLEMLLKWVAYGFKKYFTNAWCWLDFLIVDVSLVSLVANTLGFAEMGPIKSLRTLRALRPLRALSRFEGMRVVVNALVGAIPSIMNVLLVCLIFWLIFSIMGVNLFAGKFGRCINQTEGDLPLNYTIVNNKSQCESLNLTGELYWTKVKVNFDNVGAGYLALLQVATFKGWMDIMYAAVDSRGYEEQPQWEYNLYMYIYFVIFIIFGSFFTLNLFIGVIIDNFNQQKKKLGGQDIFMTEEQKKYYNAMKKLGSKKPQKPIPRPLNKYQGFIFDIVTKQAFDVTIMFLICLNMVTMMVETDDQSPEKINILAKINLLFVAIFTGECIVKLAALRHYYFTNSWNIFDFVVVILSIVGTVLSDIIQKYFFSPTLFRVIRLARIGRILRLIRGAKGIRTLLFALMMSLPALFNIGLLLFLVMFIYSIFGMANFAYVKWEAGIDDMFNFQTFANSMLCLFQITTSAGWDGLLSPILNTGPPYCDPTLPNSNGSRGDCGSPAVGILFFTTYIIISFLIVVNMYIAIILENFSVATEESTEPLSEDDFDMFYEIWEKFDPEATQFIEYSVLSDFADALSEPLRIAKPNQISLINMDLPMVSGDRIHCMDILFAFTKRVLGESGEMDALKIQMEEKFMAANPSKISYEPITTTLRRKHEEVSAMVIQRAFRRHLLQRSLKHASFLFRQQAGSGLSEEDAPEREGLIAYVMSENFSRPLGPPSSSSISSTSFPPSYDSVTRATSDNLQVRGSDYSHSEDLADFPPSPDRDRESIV

[4] = target: Voltage-dependent L-type calcium channel subunit alpha-1C (Homo sapiens, UniProt Q13936); assay: Inhibition of Cav1.2 (unknown origin)
Cytochrome P450 3A4 = Cytochrome P450 3A4 (Homo sapiens, UniProt P08684); assay: Inhibition of CYP3A4 (unknown origin); assay type: ADME
Cytochrome P450 3A4, sequence (P08684 whole entry): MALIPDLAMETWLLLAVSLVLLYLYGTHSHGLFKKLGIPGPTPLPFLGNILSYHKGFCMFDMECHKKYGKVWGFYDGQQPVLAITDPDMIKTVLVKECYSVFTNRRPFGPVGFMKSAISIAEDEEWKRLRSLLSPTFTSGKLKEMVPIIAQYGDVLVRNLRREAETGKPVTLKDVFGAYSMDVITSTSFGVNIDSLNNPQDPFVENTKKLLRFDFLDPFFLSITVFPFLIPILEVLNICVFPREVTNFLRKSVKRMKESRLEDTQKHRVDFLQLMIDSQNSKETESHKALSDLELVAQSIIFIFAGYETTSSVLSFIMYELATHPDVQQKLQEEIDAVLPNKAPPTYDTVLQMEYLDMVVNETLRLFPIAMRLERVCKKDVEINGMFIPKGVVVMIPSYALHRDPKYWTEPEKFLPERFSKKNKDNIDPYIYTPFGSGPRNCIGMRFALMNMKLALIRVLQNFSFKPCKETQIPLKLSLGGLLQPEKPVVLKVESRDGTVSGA

Cytochrome P450 2D6 = Cytochrome P450 2D6 (Homo sapiens, UniProt P10635); assay: Inhibition of CYP2D6 (unknown origin); assay type: ADME
Cytochrome P450 2D6, sequence (P10635 whole entry): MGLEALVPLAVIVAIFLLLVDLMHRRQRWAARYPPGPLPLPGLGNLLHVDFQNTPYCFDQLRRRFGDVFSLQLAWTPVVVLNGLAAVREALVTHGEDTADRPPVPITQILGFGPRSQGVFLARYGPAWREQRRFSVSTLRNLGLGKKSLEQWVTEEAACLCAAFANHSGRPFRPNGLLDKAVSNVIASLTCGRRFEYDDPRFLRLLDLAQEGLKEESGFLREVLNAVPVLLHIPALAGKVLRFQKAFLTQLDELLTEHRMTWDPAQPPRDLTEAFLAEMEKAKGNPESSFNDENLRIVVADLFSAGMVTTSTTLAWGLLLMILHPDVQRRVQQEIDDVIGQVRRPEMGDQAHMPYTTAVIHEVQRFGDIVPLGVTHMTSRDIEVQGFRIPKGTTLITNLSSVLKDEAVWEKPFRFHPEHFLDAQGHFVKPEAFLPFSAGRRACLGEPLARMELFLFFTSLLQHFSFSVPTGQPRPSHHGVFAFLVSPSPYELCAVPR

Cytochrome P450 2C9 = Cytochrome P450 2C9 (Homo sapiens, UniProt P11712); assay: Inhibition of CYP2C9 (unknown origin); assay type: ADME
Cytochrome P450 2C9, sequence (P11712 whole entry): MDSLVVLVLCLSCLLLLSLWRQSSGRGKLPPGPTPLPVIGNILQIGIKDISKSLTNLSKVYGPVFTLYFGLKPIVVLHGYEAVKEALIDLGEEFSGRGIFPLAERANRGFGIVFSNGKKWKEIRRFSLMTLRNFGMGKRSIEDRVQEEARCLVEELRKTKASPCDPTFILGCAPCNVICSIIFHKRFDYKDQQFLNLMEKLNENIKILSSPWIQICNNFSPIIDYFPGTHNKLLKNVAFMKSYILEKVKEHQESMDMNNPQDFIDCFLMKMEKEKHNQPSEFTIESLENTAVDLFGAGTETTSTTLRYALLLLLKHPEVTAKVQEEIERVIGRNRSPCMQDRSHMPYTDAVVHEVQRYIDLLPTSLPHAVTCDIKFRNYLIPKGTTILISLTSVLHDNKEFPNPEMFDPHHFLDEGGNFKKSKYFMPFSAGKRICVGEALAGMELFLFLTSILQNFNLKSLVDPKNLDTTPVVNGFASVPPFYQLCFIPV

[5] = target: T2, Nuclear receptor subfamily 1 group I member 2 (Homo sapiens, UniProt O75469); assay: Activation of PXR (unknown origin) assessed as CYP3A4 induction
T2 sequence (O75469 whole entry): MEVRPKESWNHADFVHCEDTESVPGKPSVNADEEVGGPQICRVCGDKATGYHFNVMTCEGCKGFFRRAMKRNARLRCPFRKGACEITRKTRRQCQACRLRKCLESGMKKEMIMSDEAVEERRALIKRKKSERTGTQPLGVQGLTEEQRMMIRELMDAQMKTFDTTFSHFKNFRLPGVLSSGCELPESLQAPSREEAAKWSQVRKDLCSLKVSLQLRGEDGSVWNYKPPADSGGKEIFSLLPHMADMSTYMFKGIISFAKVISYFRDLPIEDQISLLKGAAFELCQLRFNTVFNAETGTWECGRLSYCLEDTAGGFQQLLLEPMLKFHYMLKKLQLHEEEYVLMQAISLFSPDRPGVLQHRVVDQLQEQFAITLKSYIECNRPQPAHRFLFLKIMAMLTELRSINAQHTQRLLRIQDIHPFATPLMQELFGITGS

MDR1 = assay: Apparent permeability in pig LLC-PK1 cells transfected with MDR1; assay type: ADME, cell-based, Sus scrofa
Protein O-GlcNAcase [6] = target: T3, Protein O-GlcNAcase (Rattus norvegicus, UniProt Q8VIJ5); assay: Inhibition of OGA in rat PC12 cells assessed as OGlcNAcylated protein level incubated for 24 hrs by ELISA; assay type: cell-based
T3 sequence (Q8VIJ5 whole entry): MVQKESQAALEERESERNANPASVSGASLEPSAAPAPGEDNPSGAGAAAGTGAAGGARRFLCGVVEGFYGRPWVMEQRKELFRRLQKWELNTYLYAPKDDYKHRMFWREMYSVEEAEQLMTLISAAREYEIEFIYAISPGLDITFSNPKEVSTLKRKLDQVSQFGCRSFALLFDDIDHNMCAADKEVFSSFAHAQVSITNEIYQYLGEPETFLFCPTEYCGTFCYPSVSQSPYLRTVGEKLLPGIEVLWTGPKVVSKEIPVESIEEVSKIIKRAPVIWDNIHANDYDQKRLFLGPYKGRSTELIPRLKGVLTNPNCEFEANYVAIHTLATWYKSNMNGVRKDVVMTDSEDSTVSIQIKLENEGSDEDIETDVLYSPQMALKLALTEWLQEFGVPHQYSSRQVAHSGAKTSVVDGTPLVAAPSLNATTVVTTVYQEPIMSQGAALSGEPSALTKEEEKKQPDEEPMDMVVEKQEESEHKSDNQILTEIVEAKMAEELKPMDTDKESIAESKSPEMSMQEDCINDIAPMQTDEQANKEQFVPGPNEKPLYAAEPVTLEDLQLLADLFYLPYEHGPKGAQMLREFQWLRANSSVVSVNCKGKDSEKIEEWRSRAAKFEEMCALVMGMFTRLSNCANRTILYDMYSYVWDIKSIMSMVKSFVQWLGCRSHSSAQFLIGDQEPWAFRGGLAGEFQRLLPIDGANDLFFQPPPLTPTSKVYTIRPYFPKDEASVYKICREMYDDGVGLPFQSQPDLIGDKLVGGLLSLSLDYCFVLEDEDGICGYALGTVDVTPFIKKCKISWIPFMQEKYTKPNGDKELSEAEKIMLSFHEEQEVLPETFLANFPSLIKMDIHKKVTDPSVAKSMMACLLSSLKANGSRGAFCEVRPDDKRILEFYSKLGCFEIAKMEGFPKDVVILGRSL

[7] = target: T4, Beta-hexosaminidase subunit beta (Homo sapiens, UniProt P07686); assay: Inhibition of human beta hexosaminidase assessed as inhibitory constant using 4-methylumbelliferyl N-acetyl-beta-D-glucosaminide dihydrate as substrate measured every 60 sec for 45 mins by fluorescence spectrophotometry
T4 sequence (P07686 whole entry): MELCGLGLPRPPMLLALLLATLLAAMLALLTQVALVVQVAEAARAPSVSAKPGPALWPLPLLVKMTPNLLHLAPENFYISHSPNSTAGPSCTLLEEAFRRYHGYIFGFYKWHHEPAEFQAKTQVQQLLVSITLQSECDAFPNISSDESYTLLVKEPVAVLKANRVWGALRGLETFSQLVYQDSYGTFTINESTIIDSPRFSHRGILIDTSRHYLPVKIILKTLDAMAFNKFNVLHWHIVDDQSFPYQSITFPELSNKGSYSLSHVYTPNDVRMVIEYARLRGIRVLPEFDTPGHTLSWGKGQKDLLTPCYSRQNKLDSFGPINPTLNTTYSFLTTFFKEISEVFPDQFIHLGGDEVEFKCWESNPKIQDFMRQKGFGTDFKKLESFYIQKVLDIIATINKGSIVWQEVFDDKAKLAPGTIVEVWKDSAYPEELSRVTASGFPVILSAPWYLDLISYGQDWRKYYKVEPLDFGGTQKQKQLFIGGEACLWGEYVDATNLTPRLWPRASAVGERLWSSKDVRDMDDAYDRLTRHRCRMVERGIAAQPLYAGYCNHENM

[8] = AUCN in Wistar Han rat at 3 mg/kg, po; assay type: ADME, organism-based; details: in vivo
[9] = Clearance in Wistar Han rat at 2 mg/kg, iv; assay type: ADME, organism-based; details: in vivo
[10] = Half life in Wistar Han rat at 2 mg/kg, iv; assay type: ADME, organism-based; details: in vivo
[11] = Volume of distribution at steady state in Wistar Han rat at 2 mg/kg, iv or 3 mg/kg, po; assay type: ADME, organism-based; details: in vivo, read-out: Vdss
[12] = Oral bioavailability in Wistar Han rat at 3 mg/kg; assay type: ADME, organism-based; details: in vivo
Rattus norvegicus = assay: Elevation of O-protein in rat brain at 3 mg/kg, po measured after 8 hrs relative to control; assay type: functional
[13] = Drug uptake in rat brain at 3 mg/kg, po measured after 8 hrs; assay type: ADME, organism-based; details: in vivo
[14] = Ratio of drug uptake in rat brain to plasma at 3 mg/kg, po measured after 8 hrs; assay type: ADME, organism-based; details: read-out: BPR
[15] = Fraction unbound in human plasma at 2.5 uM by equilibrium dialysis; assay type: ADME, cell-free
[16] = Fraction unbound in Wistar Han rat plasma at 2.5 uM by equilibrium dialysis; assay type: ADME, cell-free
[17] = Oral bioavailability in Wistar Han rat at 10 mg/kg; assay type: ADME, organism-based; details: in vivo

Structure (SMILES)	Ki (Protein O-GlcNAcase [1]) [µM]	IC50 (Cytochrome P450 3A4) [µM]	IC50 (Cytochrome P450 2D6) [µM]	IC50 (Cytochrome P450 2C9) [µM]	EC50 [5] [µM]	Papp (MDR1) [×10⁻⁶ cm/s]	EC50 (Protein O-GlcNAcase [6]) [µM]	Ki [7] [µM]	IC50 [2] [µM]	IC50 [3] [µM]	IC50 [4] [µM]	further results
CCNC1=N[C@@H]2[C@@H](O)[C@H](O)[C@@H](COC)O[C@@H]2S1	0.19	> 50	> 50	> 50	> 30	–	–	–	> 30	> 30	> 30	–
CCNC1=N[C@H]2[C@H](O[C@H](CO)C[C@@H]2O)S1	> 3	> 50	> 50	> 50	> 30	7	–	> 10	> 30	> 30	> 30	–
CCNC1=N[C@@H]2C[C@H](O)[C@@H](CO)O[C@@H]2S1	–	> 50	> 50	> 50	> 30	2.6	–	> 10	> 30	> 30	> 30	–
CCNC1=N[C@H]2[C@H](O[C@H](CO)C(F)[C@@H]2O)S1 (some centres not stated)	> 3	> 50	> 50	> 50	> 30	–	–	> 10	> 30	> 30	> 30	–
CCNC1=N[C@@H]2[C@@H](OC)[C@H](O)[C@@H](CO)O[C@@H]2S1	0.27	> 50	> 50	> 50	> 30	–	–	> 10	> 30	> 30	> 30	–
CCNC1=N[C@@H]2[C@@H](O)[C@H](OC)[C@@H](CO)O[C@@H]2S1	> 3	> 50	> 50	> 50	> 30	–	–	–	> 30	> 30	> 30	–

The next lines start with results.

Ki (Protein O-GlcNAcase [1]) [µM]	IC50 (Cytochrome P450 3A4) [µM]	IC50 (Cytochrome P450 2D6) [µM]	IC50 (Cytochrome P450 2C9) [µM]	EC50 [5] [µM]	Papp (MDR1) [×10⁻⁶ cm/s]	EC50 (Protein O-GlcNAcase [6]) [µM]	Ki [7] [µM]	Structure (SMILES)	IC50 [2] [µM]	IC50 [3] [µM]	IC50 [4] [µM]	further results
0.0053	–	–	–	–	14	0.0414	> 10	CCCNC1=N[C@@H]2[C@@H](O)[C@H](O)[C@@H](C(F)F)O[C@@H]2S1	–	–	–	AUC/dose [8]: 0.376 µM·kg·h/mg; clearance [9]: 72.6 mL/min/kg; half-life [10]: 3.89 h; Vd [11]: 5.99 L/kg; bioavailability [12]: 44.8%; fold change (FC) (Rattus norvegicus): 1.81; Drug uptake [13]: 0.193 nmol/g; Kp at 8 h [14]: 8.81
0.00036	–	–	–	–	5.7	0.00171	1.3	CNC1=N[C@@H]2[C@@H](O)[C@H](O)[C@@H](C(F)F)O[C@@H]2S1	–	–	–	fraction unbound at 2.5 µM [15]: 0.77; fraction unbound at 2.5 µM [16]: 0.83; AUC/dose [8]: 2.54 µM·kg·h/mg; clearance [9]: 27.1 mL/min/kg; half-life [10]: 1.48 h; Vd [11]: 1.72 L/kg; bioavailability [12]: 93.8%; fold change (FC) (Rattus norvegicus): 2; Drug uptake [13]: 0.133 nmol/g; Kp at 8 h [14]: 1.33
0.069	> 50	> 50	> 50	> 30	–	–	–	CCNC1=N[C@@H]2[C@@H](O)[C@H](O)[C@@H](C)O[C@@H]2S1	> 30	> 30	> 30	–
0.014	–	–	–	–	17	0.119	> 10	CCCNC1=N[C@@H]2[C@@H](O)[C@H](O)[C@@H](CF)O[C@@H]2S1	–	–	–	bioavailability [17]: 75.3%

— ChEMBL document CHEMBL4354805, “Discovery of MK-8719, a Potent O-GlcNAcase Inhibitor as a Potential Treatment for Tauopathies” (J Med Chem, 2019)
